{
  "source": "paper PMC4841036",
  "about": "“Synthesis and antimicrobial evaluation of two peptide LyeTx I derivatives modified with the chelating agent HYNIC for radiolabeling with technetium-99m” (The Journal of Venomous Animals and Toxins Including …, 2016)",
  "key": {"[1]": {"tested_on": "E. coli", "conditions": "different assay conditions and other bacterial strains; cited from earlier work", "description": "(§1) However, different assay conditions and other bacterial strains were employed, which can explain the slight differences in the MIC obtained in this study. […] On the other hand, the peptide HYNIC-LyeTx I derivative (N- ..."}, "[2]": {"tested_on": "S. aureus", "conditions": "different assay conditions and other bacterial strains; cited from earlier work", "description": "as §1"}, "[3]": {"tested_on": "E. coli (ATCC® 10536)", "test": "Microdilution test, MIC in TSB", "assay_type": "cell-based, Escherichia coli", "conditions": "microdilution (CLSI) in TSB, 37 °C for 24 h, MIC = reduction of 100 % in bacterial growth, median (n = 3), each in duplicate, NI = no inhibition", "protocol": "(§2) The maintenance of the antimicrobial activity after peptide LyeTx I modifications with HYNIC was evaluated by microdilution test, according to the Clinical and Laboratory Standards Institute. Bacterial strains of reference, S. aureus (ATCC® 6538) and E. coli (ATCC® 10536), were grown on tryptic soy agar at 37 °C for 18 h. Then, 0.5 McFarland scale bacterial suspensions (10^8 CFU^.mL^−1) were prepared on tryptic soy broth (TSB). The readouts were carried by determination of minimum inhibitory concentration (MIC), defined as a reduction of 100 % in bacterial growth post-incubation with the peptide LyeTx I derivatives at 37 °C for 24 h. LyeTx I obtained by chemical synthesis and without the coupled chelating agent was used as treatment control. Only TSB (no bacterial suspension and no peptide) was used as negative control. TSB plus bacterial suspension (no peptide) were used as positive control. MIC was expressed as median (n = 3). Each replicate was performed with a different bacterial colony, in duplicate."}, "[4]": {"tested_on": "S. aureus (ATCC® 6538)", "test": "Microdilution test, MIC in TSB", "assay_type": "cell-based, Staphylococcus aureus", "conditions": "microdilution (CLSI) in TSB, 37 °C for 24 h, MIC = reduction of 100 % in bacterial growth, median (n = 3), each in duplicate, NI = no inhibition", "protocol": "as §2"}},
  "note": "Where no end group is shown, it is not given here.",
  "data": [
    {"substance": "IWLTALKFLGKNLGKHLAKQQLAKL-NH2 [LyeTx I]", "values": [
      {"measurement": "MIC", "setting": "[1]", "value": 7.81, "unit": "μmol^.L^−1"},
      {"measurement": "MIC", "setting": "[2]", "value": 3.79, "unit": "μmol^.L^−1"},
      {"measurement": "Minimum inhibitory concentration (MIC)", "setting": "[3]", "value": 5.52, "unit": "μmol^.L^−1"},
      {"measurement": "Minimum inhibitory concentration (MIC)", "setting": "[4]", "value": 5.52, "unit": "μmol^.L^−1"}
    ]}
  ]
}
